Data on 1 compound can be found in article PMC5190008, “BO-1055, a novel DNA cross-linking agent with remarkable low myelotoxicity shows potent activity in sarcoma models” (Oncotarget, 2016).

For one series, the system named is Ewing sarcoma cell lines. As to the kind of experiment: Alamar Blue cell proliferation assay. Type of series: cell-based, human. As for the experimental part:
(§1) AlamarBlue® assay (Invitrogen, Carlsbad, CA, USA) was performed to evaluate anti-proliferative activity of the drugs in cell lines and primary cells. Cells were plated in 96-well plates ([…] in 200 μL of medium). After 12 h, one of the previously mentioned drugs was added to each well at the specified concentration and incubated for 72 h. At the end of the incubation period, 20 μL of stock solution (0.312 mg/mL) of the Alamar Blue was added to each well. The absorbance was measured using the Synergy H1 hybrid multi-mode microplate reader (BioTek, USA). The drug effect was quantified as the percentage of control absorbance at 540 nm and 585 nm. Optical density was determined for 3 replicates per treatment condition and cell proliferation in drug-treated cells was normalized to their respective controls. All experiments were performed in triplicate.
(§2) Data are presented as mean±S.E.M. of at least three independent experiments done in triplicate. […] Combination index (CI) values, as calculated by CompuSyn software (Chou and Martin, 2007), were used to evaluate the interaction between BO-1055 and a second drug (Topotecan, SN38, Doxorubicin or PU-H71). The Chou-Talalay method was used to quantify the synergism (CI < 1), additive effect (CI = 1) and antagonism (CI > 1) of various drug combinations.

For series [1], the system named is rhabdomyosarcoma cell lines. As to the kind of experiment: Alamar Blue cell proliferation assay. Type of series: cell-based, human. As for the experimental part:
as §1, §2

For series [2], the system named is Ewing sarcoma patient samples. As to the kind of experiment: Alamar Blue cell proliferation assay. Type of series: cell-based, human. An excerpt:
Ewing sarcoma cell line A673, Prostate (PC-3, LNCaP, 22RV/HL2), colon (HCT-116), breast (MCF-7, MX-1), small cell lung cancer (H526) and renal (A-498, 786-0) cancer cell lines were purchased from American Type Culture Collection (ATCC, Manassas, VA). Dr. Marc Ladanyi (Department of Pathology, MSKCC) kindly provided the following cell lines: CHLA-9, TC32, RMS559 and TE-381. Dr. Gary Schwartz kindly provided the following osteosarcoma cell lines: OSA, U20S and SAOS. Dr. Constantine Markides, (CHRISTUS Stehlin Foundation for Cancer Research, TX) kindly provided Ewing sarcoma and desmoplastic small round cell tumor (DSRCT) cell lines, including CAR, ZUC, ORA, BER and BOD. Early cultures derived from Ewing sarcoma patient samples, including IARC-EW1, SIM-1 were obtained from the MSKCC monoclonal antibody core facility. […]
AlamarBlue® assay (Invitrogen, Carlsbad, CA, USA) was performed to evaluate anti-proliferative activity of the drugs in cell lines and primary cells. […] The absorbance was measured using the Synergy H1 hybrid multi-mode microplate reader (BioTek, USA). The drug effect was quantified as the percentage of control absorbance at 540 nm and 585 nm. Optical density was determined for 3 replicates per treatment condition and cell proliferation in drug-treated cells was normalized to their respective controls. […]

In another series the test system is A204 cells. As to the kind of experiment: Alamar Blue cell proliferation assay. The conditions noted are these: Homo sapiens; A204, 72 h drug exposure. Type of series: cell-based. The method, then: as §1
(§3) Data are presented as mean±S.E.M. of at least three independent experiments done in triplicate. The comparison of means between treated and control mice was performed using two-tailed T-test or ANOVA (for more than two groups) as implemented in GraphPad Prism (version 4; GraphPad Software). Graphpad Prism software was used to plot concentration-effect curves and determine the drug concentration that inhibited the growth of cell lines by 50% compared to the control (IC50). A p-value of 0.05 or less was considered significant. Combination index (CI) values, as calculated by CompuSyn software (Chou and Martin, 2007), were used to evaluate the interaction between BO-1055 and a second drug (Topotecan, SN38, Doxorubicin or PU-H71). The Chou-Talalay method was used to quantify the synergism (CI < 1), additive effect (CI = 1) and antagonism (CI > 1) of various drug combinations.

The test system of another series is OSA cells. As to the kind of experiment: Alamar Blue cell proliferation assay. Type of series: cell-based. Particulars: Homo sapiens, 72 h drug exposure. The method, then: as §1, §3
The next series deals with RH30 cells. In words: Alamar Blue cell proliferation assay. Type of series: cell-based. Particulars: Homo sapiens; RH30, 72 h drug exposure. As for the experimental part: as §1, §3
Another series relates to SAOS cells. As to the kind of experiment: Alamar Blue cell proliferation assay. Format: cell-based. The conditions noted are these: Homo sapiens, 72 h drug exposure. As for the experimental part:
as §1, §3

The test system of a further series is osteosarcoma cell lines. As to the kind of experiment: Alamar Blue cell proliferation assay. Type of series: cell-based. The conditions noted are these: Homo sapiens. The method, then: as §1, §3
In series [3] the test system is benign cells (mesenchymal stromal cells, fetal lung fibroblasts and myofibroblasts, hematopoietic progenitor cells, endothelial cells, MS-5). As to the kind of experiment: Alamar blue cytotoxicity in benign cells. Type of series: cell-based, human, murine. Particulars: up to 10 μM, most of the tested cells. As for the experimental part:
We also examined the effect of BO-1055 in inhibiting the cell growth of different types of benign cells including human mesenchymal stromal cells, fetal lung fibroblasts and myofibroblasts, hematopoietic progenitor cells, bone marrow derived endothelial cells and human umbilical vein endothelial cells and murine mesenchymal stromal cells, MS-5 (murine).
as §1

In the next series the test system is A673 spheroids. In words: Spheroid assay in 3D culture (methylcellulose). Format: cell-based, human. As for the experimental part:
A673 cells were seeded on flat bottom non attachment 24 well plates (1000 cells/well) in triplicate using 1.2 % methylcellulose (Dow Chemical, Waterloo, NY) mixed with 20% FCS and specified concentrations of BO-1055 or 4HC as shown in Figure 1D. Samples were incubated at 37°C / 5 % CO2 and colonies were scored 14 days after plating.

Series [4] has as its system patient derived Ewing sarcoma xenografts. As to the kind of experiment: Combination in vivo study in Ewing sarcoma PDX. Set-up: species or system NSG mice.
Details of series [5]: method as in PMID 23353940. Particulars: rats, HPLC-PDA ref 7; cited from earlier work.

Take `CN(C)CCNC(=O)c1cccc(NC(=O)Nc2ccc(N(CCCl)CCCl)cc2)c1` [BO-1055]: the IC50 entry with Ewing sarcoma cell lines is “submicromolar”; in series [1] it was “submicromolar”; in series [2], “submicromolar”; in the series with A204 cells, 0.08 µM; in the series with OSA cells, above 10 µM; in the series with RH30 cells, 0.24 µM. In addition, the IC50 in the series on SAOS cells and in the series on osteosarcoma cell lines was above 10 µM throughout. The “cytotoxicity against benign cells” value in series [3] is on record as “minimal to no cytotoxicity”. Besides, the “concentration giving complete inhibition of spheroids” value with A673 spheroids (A673 spheroids in methylcellulose, scored 14 days after plating) turned out to be 0.5 µM. In the series on A673 spheroids (BO-1055 vs 4-HC), the “fold lower concentration inhibiting A673 spheroids compared to 4-HC” value is on record as 10 fold. Moreover, in [4] (BO-1055 IV plus Irinotecan IP, 10mg/kg/dose qd x 5 or 5mg/kg/dose qd x 5, day 14), the “tumor regression in combination group compared to single drug groups” value is given as “significantly greater”. For the same compound, the “weight loss in combination group compared to single drug groups” value in series [4] (BO-1055 plus Irinotecan) is “No significant weight loss”. The elimination result in series [5] was “slow elimination”. Also, the tissue distribution result in series [5] is given as “rapid distribution to all organs except brain”.
